# Measurements as given in the supplement of paper PMC10307832.
# How the values were obtained:
# Experiment in all cases: relative viability (nuclei count vs DMSO), 5 days (fraction); higher = more cells survive
# [1] = compound: CNC(=O)c1cc(Oc2ccc(NC(=O)Nc3ccc(Cl)c(C(F)(F)F)c3)cc2)ccn1 [Sorafenib] + CS(=O)(=O)CCNCc1ccc(-c2ccc3ncnc(Nc4ccc(OCc5cccc(F)c5)c(Cl)c4)c3c2)o1 [Lapatinib] (partner 2 µM)
# Summary of the method: (§1)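 A single step with final 0.05% Triton X-100, 1% formaldehyde and 1 ug/ml Hoechst fixed the cells and stained nuclei 5 days after treatment. Lung cancer cell lines in 1536-well plates had been treated by pin tool the day after seeding with one drug alone or a fixed anchor-drug dose plus five library-drug doses (not always all listed) in √10 steps, and nuclei were counted on 4× images. Relative viability is the ratio of nuclei in treated wells to nuclei in vehicle wells, taken as the median of duplicate plates.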
# [2] = compound: CNC(=O)c1cc(Oc2ccc(NC(=O)Nc3ccc(Cl)c(C(F)(F)F)c3)cc2)ccn1 [Sorafenib] + O=C(CCCCCCC(=O)Nc1ccccc1)NO [Vorinostat] (partner 1 µM)
# Summary of the method: as §1
# [3] = compound: CNC(=O)c1cc(Oc2ccc(NC(=O)Nc3ccc(Cl)c(C(F)(F)F)c3)cc2)ccn1 [Sorafenib] + C[C@]1(O)C[C@@H](c2nc(-c3ccc4ccc(-c5ccccc5)nc4c3)c3c(N)nccn32)C1 [Linsitinib] (partner 1 µM)
# Summary of the method: as §1
# [4] = compound: CNC(=O)c1cc(Oc2ccc(NC(=O)Nc3ccc(Cl)c(C(F)(F)F)c3)cc2)ccn1 [Sorafenib] + CC1(C)CCC(c2ccc(Cl)cc2)=C(CN2CCN(c3ccc(C(=O)NS(=O)(=O)c4ccc(N[C@H](CCN5CCOCC5)CSc5ccccc5)c(S(=O)(=O)C(F)(F)F)c4)cc3)CC2)C1 [Navitoclax] (partner 0.5 µM)
# Summary of the method: as §1
# [5] = compound: CNC(=O)c1cc(Oc2ccc(NC(=O)Nc3ccc(Cl)c(C(F)(F)F)c3)cc2)ccn1 [Sorafenib] + Nc1ncn([C@H]2C[C@H](O)[C@@H](CO)O2)c(=O)n1 [Decitabine] (partner 2 µM)
# Summary of the method: as §1
Cell Line,relative viability ([1]; first compound 0.08 µM),relative viability ([1]; first compound 0.253 µM),relative viability ([1]; first compound 8 µM),relative viability ([2]; first compound 0.08 µM),relative viability ([2]; first compound 0.253 µM),relative viability ([2]; first compound 2.53 µM),relative viability ([2]; first compound 8 µM),relative viability ([3]; first compound 0.08 µM),relative viability ([3]; first compound 0.253 µM),relative viability ([3]; first compound 8 µM),relative viability ([4]; first compound 0.08 µM),relative viability ([4]; first compound 0.253 µM),relative viability ([4]; first compound 2.53 µM),relative viability ([4]; first compound 8 µM),relative viability ([5]; first compound 0.253 µM),relative viability ([5]; first compound 2.53 µM),relative viability ([5]; first compound 8 µM),relative viability ([1]; first compound 2.53 µM),relative viability ([3]; first compound 2.53 µM),relative viability ([5]; first compound 0.08 µM)
NCI-H1993,0.893,0.782,0.78,0.973,0.726,1.1,0.633,0.774,0.675,0.819,1.07,0.973,0.914,0.753,0.478,0.665,0.489,–,–,–
NCI-H2126,0.766,0.642,0.792,0.88,0.747,0.828,0.799,0.754,0.706,–,0.892,0.782,0.888,0.867,0.524,0.562,0.643,0.808,0.745,0.631
BEN,0.857,0.675,0.614,0.567,0.621,0.685,0.593,1.02,0.914,0.693,0.09,0.0558,0.0776,0.0641,0.726,–,0.461,0.782,0.886,0.746
NCI-H3122,1.05,0.987,1.01,1.03,0.932,–,0.846,1.06,1.02,0.828,1.04,1.06,1.03,0.753,0.467,0.375,0.189,1.02,1.01,0.384
EMC-BAC-2,0.924,0.813,0.879,0.481,–,0.546,0.479,0.821,0.788,0.771,1.22,1.06,1.18,1.11,–,–,0.757,0.883,0.838,0.925
201T,1.06,0.991,1.03,1.01,0.946,0.963,0.926,1,0.985,1.06,1.19,1.24,1.27,1.18,0.816,0.867,0.879,–,1.02,0.854
NCI-H2085,–,0.761,0.717,0.852,0.795,1.01,0.78,0.962,0.924,0.728,1.21,1.07,1.17,0.901,0.566,0.573,0.49,0.858,1.07,0.608
EKVX,0.248,0.2,0.229,0.718,0.723,0.832,0.803,1.12,0.983,0.912,1.13,0.882,0.884,0.963,0.362,0.378,0.305,0.249,0.989,0.339
LCLC-97TM1,0.678,0.707,0.603,0.68,0.674,0.65,0.576,0.224,0.161,0.184,0.356,0.373,0.323,0.313,0.224,0.165,0.252,0.701,0.153,0.235
NCI-H322M,0.597,0.639,0.665,1.02,0.886,1.02,1.17,0.886,1.05,0.984,1.19,1.25,1.34,1.16,0.788,0.823,0.739,0.727,0.912,0.69
